IC50 and DC50 data for 14 compounds are collected here from US10087191B2, “Piperidine derivative and preparation method and pharmaceutical use thereof” (Jiangsu Hengrui Medicine Co., Ltd., priority 2015, dated 2018).

What all share (type): cell-based
In one test the target is estrogen receptor (ER) (Homo sapiens (Human), UniProt P03372). As to the kind of experiment: Inhibition of the binding of estrogen (E) to estrogen receptor (ER), MCF-7/ERE-luciferase reporter cells. The note with it: MCF-7/ERE-luciferase cells, 0.1 nM estradiol, 24 hours; read-out: IC50 value of inhibition effect on the binding of E to ER. For orientation: In a reporter assay the amount or activity of a reporter protein is the signal.
Chain of estrogen receptor (ER) (P03372 whole entry): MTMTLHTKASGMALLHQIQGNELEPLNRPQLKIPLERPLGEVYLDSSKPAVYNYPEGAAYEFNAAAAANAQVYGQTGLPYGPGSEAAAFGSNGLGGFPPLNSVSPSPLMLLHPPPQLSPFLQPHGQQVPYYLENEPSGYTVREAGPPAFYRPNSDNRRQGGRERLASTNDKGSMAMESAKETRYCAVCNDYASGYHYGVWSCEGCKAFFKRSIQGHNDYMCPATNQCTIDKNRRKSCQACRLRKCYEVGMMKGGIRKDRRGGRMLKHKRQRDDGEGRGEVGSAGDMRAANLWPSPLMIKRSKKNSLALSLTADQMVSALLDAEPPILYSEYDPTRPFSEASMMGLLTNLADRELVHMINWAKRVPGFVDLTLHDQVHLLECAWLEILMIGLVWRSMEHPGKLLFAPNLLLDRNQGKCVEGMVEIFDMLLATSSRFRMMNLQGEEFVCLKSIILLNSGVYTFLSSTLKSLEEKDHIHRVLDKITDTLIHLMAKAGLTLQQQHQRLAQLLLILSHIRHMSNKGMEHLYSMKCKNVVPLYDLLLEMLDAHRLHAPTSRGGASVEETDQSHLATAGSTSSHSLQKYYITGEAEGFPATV

Another test deals with MCF7 cells. As to the kind of experiment: Inhibition of the proliferation of MCF7 cells (Cell Titer-Glo). As to conditions: Homo sapiens, MCF-7 cells, 72 hours, read-out: IC50 value of inhibition effect on the proliferation of MCF7 cells. The method, boiled down: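 Viability by Cell Titer-Glo luminescence; IC50 from signal versus log concentration.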
Background: In ATP-based viability assays light output follows the ATP content of the culture.

The next test addresses ERα (Homo sapiens (Human), UniProt P03372). As to the kind of experiment: Degradation effect on ERα in MCF-7 cells (ERα Duoset ELISA). The note with it: MCF-7 cells; read-out: IC50 value of the degradation effect on ERα. As to the method:
In order to determine the degradation effect on ER induced by the compounds of the present invention, the following method was used to determine the degradation effect of the compounds of the present invention on ER.
MCF-7 cell line (TChu 74, Cell Bank of Chinese Academy of Sciences typical culture preservation Committee)
ERα Duoset Kit (#DYC5715E, R&D System)
MCF-7 cells were incubated in DMEM/F-12 medium containing 10% FBS.
On the first day of the experiment, MCF-7 cells were resuspended in DMEM/F-12 medium containing 10% FBS treated by activated carbon, then inoculated into a 48-well plate with a density of 50,000 cells/well and incubated for 22-24 hours.
On the second day of the experiment, the test compound was diluted with medium and added to a 48-well plate. The ERα-capture antibody was diluted to 1 μg/ml with PBS, and added to a 96-well plate at 100 μl/well. The plate was sealed and coated overnight at room temperature.
On the third day of the experiment, the coated 96-well plate was washed twice with PBS, added with a sealing solution (1% BSA in PBS) at 110 μl/well and sealed for 1 hour at room temperature. The 48-well plate was washed once with PBS, and the residual liquid was removed. Then, 60 μl of lysis (6 M urea, 1 mM EDTA, 0.5% Triton X-100, 1 mM PMSF, Protease Inhibitor cocktail) was added to each well. After lysis on ice for 15 minutes, the diluent (1 mM EDTA, 0.5% TritonX-100 dissolved in PBS) was added. The cell-diluted lysate was transferred to a 96-well plate at 100 μl/well, then the plate was incubated at room temperature for 2 hours. The diluted primary antibody was added after the plate was washed 4 times with a washing liquid (PBST). After incubation for 1 hour, the 96-well plate was washed 4 times, and the second antibody was added, then the plate was incubated for 30 minutes. After the plate was washed with a washing liquid, TMB chromogenic solution was added and incubated for 15 minutes. The reaction was stopped by the addition of 1 M H2SO4, then the light absorption at 450 nm was read.

Chain of ERα (P03372 whole entry): as above

With `CCn1cc(-c2ccc3c(c2F)CC(C)N(CC(C)(C)F)C3c2c(F)cc(/C=C/C(=O)O)cc2F)cn1` [Example 47, (E)-3-(4-((1S,3R/1R,3S)-6-(1-ethyl-1H-pyrazol-4-yl)-5-fluoro-2-(2-fluoro-2-methylpropyl)-3-methyl-1,2,3,4-tetrahydroisoquinolin-1-yl)-3,5-difluorophenyl)acrylic acid], the IC50 amounted to 1.5 nM at estrogen receptor (ER) and 0.71 nM in the test with MCF7 cells. Also, the DC50 on ERα was 3.54 nM.
On the same counts, the results for `CC1Cc2cc(-c3cnn(CCF)c3)ccc2C(c2c(F)cc(/C=C/C(=O)O)cc2F)N1CC(C)(C)F` [Example 48, (E)-3-(3,5-difluoro-4-((1S,3R/1R,3S)-2-(2-fluoro-2-methylpropyl)-6-(1-(2-fluoroethyl)-1H-pyrazol-4-yl)-3-methyl-1,2,3,4-tetrahydroisoquinolin-1-yl)phenyl)acrylic acid] are 1.82 nM, 0.64 nM and 7.36 nM.
In the case of `CC1Cc2cc(-c3cnn(C)c3)ccc2C(c2c(F)cc(/C=C/C(=O)O)cc2F)N1CC(C)(C)F` [Example 55, (E)-3-(3,5-difluoro-4-((1S,3R/1R,3S)-2-(2-fluoro-2-methylpropyl)-3-methyl-6-(1-methyl-1H-pyrazol-4-yl)-1,2,3,4-tetrahydroisoquinolin-1-yl)phenyl)acrylic acid], the IC50 on estrogen receptor (ER) stood at 0.82 nM; in the test with MCF7 cells, 0.2 nM. For the same compound, the DC50 at ERα was found to be 0.69 nM.
As for `CC1Cc2cc(-c3cnn(C4CC4)c3)ccc2C(c2c(F)cc(/C=C/C(=O)O)cc2F)N1CC(C)(C)F` [Example 58, (E)-3-(4-((1S,3R/1R,3S)-6-(1-cyclopropyl-1H-pyrazol-4-yl)-2-(2-fluoro-2-methylpropyl)-3-methyl-1,2,3,4-tetrahydroisoquinolin-1-yl)-3,5-difluorophenyl)acrylic acid], the IC50 on estrogen receptor (ER) worked out at 0.84 nM; in the test with MCF7 cells, 1.35 nM. In addition, at ERα, the DC50 is 1.79 nM.
On to `CC1Cc2cc(-c3ccccc3)ccc2C(c2c(F)cc(/C=C/C(=O)O)cc2F)N1CC(C)(C)F` [Example 59, (E)-3-(3,5-difluoro-4-((1S,3R/1R,3S)-2-(2-fluoro-2-methylpropyl)-3-methyl-6-phenyl-1,2,3,4-tetrahydroisoquinolin-1-yl)phenyl)acrylic acid], for which the IC50 at estrogen receptor (ER) worked out at 5.56 nM; in the test with MCF7 cells, 1.29 nM. Besides, the DC50 on ERα is 6.25 nM.
In the case of `CC1Cc2cc(-c3ccc(N4CCOCC4)cc3)ccc2C(c2c(F)cc(/C=C/C(=O)O)cc2F)N1CC(C)(C)F` [Example 60, (E)-3-(3,5-difluoro-4-((1S,3R/1R,3S)-2-(2-fluoro-2-methylpropyl)-3-methyl-6-(4-morpholinophenyl)-1,2,3,4-tetrahydroisoquinolin-1-yl)phenyl)acrylic acid], the IC50 was 7.12 nM at estrogen receptor (ER) and 2.1 nM in the test on MCF7 cells. The DC50 at ERα turned out to be 7.35 nM.
On the same counts, the results for `C[C@@H]1Cc2cc(-c3ccc4ncccc4c3)ccc2[C@@H](c2c(F)cc(/C=C/C(=O)O)cc2F)N1CC(C)(C)F` [Example 64, (E)-3-(3,5-difluoro-4-((1S,3R)-2-(2-fluoro-2-methylpropyl)-3-methyl-6-(quinolin-6-yl)-1,2,3,4-tetrahydroisoquinolin-1-yl)phenyl)acrylic acid] are 1.07 nM, 0.22 nM and 4.72 nM.
Regarding `CC1Cc2cc(-c3ccc4[nH]ncc4c3)ccc2C(c2c(F)cc(/C=C/C(=O)O)cc2F)N1CC(C)(C)F` [Example 67, (E)-3-(3,5-difluoro-4-((1S,3R/1R,3S)-2-(2-fluoro-2-methylpropyl)-6-(1H-indazol-5-yl)-3-methyl-1,2,3,4-tetrahydroisoquinolin-1-yl)phenyl)acrylic acid], the IC50 was found to be 5.48 nM on estrogen receptor (ER) and 0.07 nM in the test on MCF7 cells. Further, the DC50 on ERα came out at 6.69 nM.
Consider `CC1Cc2cc3ocnc3cc2C(c2c(F)cc(/C=C/C(=O)O)cc2F)N1CC(C)(C)F` [Example 81, (E)-3-(3,5-difluoro-4-((5S,7R/5R,7S)-6-(2-fluoro-2-methylpropyl)-7-methyl-5,6,7,8-tetrahydrooxazolo[5,4-g]isoquinolin-5-yl)phenyl)acrylic acid], for which the IC50 on estrogen receptor (ER) amounted to 4.06 nM; in the test with MCF7 cells, 3.4 nM. For the same compound, the DC50 on ERα stood at 1.62 nM.
As for `CC1Cc2c(oc3cc(F)ccc23)C(c2c(F)cc(/C=C/C(=O)O)cc2F)N1CC(C)(C)F` [Example 86, (E)-3-(3,5-difluoro-4-((1R,3R/1S,3S)-7-fluoro-2-(2-fluoro-2-methylpropyl)-3-methyl-1,2,3,4-tetrahydrobenzofuro[2,3-c]pyridin-1-yl)phenyl)acrylic acid], the IC50 worked out at 4.47 nM on estrogen receptor (ER) and 0.64 nM in the test with MCF7 cells. Moreover, the DC50 on ERα is 7.13 nM.
Take `CC1Cc2c(oc3ccc(-c4cn[nH]c4)cc23)C(c2c(F)cc(/C=C/C(=O)O)cc2F)N1CC(C)(C)F` [Example 88, (E)-3-(3,5-difluoro-4-((1R,3R/1S,3S)-2-(2-fluoro-2-methylpropyl)-3-methyl-6-(1H-pyrazol-4-yl)-1,2,3,4-tetrahydrobenzofuro[2,3-c]pyridin-1-yl)phenyl)acrylic acid]: the IC50 at estrogen receptor (ER) came out at 1.22 nM; in the test with MCF7 cells, 0.67 nM. In addition, at ERα, the DC50 is 1.61 nM.
Consider `CC1Cc2cc3[nH]ncc3cc2C(c2c(F)cc(/C=C/C(=O)O)cc2F)N1CC(C)(C)F` [Example 91, (E)-3-(3,5-difluoro-4-((5S,7R/5R,7S)-6-(2-fluoro-2-methylpropyl)-7-methyl-5,6,7,8-tetrahydro-1H-pyrazolo[3,4-g]isoquinolin-5-yl)phenyl)acrylic acid], for which the IC50 on estrogen receptor (ER) is 1.88 nM; in the test with MCF7 cells, 0.83 nM. Further, the DC50 on ERα was 2.33 nM.
On the same counts, the results for `C[C@@H]1Cc2c(ccc3[nH]ncc23)[C@@H](c2c(F)cc(/C=C/C(=O)O)cc2F)N1CC(C)(C)F` [Example 94, (E)-3-(3,5-difluoro-4-((6S,8R)-7-(2-fluoro-2-methylpropyl)-8-methyl-6,7,8,9-tetrahydro-3H-pyrazolo[4,3-f]isoquinolin-6-yl)phenyl)acrylic acid] are 0.04 nM, 0.03 nM and 0.02 nM.
On to `CCn1cc(-c2ccc3oc4c(c3c2)C[C@@H](C)N(CC(C)(C)F)[C@@H]4c2c(F)cc(/C=C/C(=O)O)cc2F)cn1` [Example 97, (E)-3-(4-((1R,3R)-6-(1-ethyl-1H-pyrazol-4-yl)-2-(2-fluoro-2-methylpropyl)-3-methyl-1,2,3,4-tetrahydrobenzofuro[2,3-c]pyridin-1-yl)-3,5-difluorophenyl)acrylic acid], for which the IC50 at estrogen receptor (ER) was found to be 0.24 nM; in the test on MCF7 cells, 0.2 nM. Also, the DC50 at ERα is 6.11 nM.
